Results from ChEMBL document CHEMBL4371007, “Biased Ligands of G Protein-Coupled Receptors (GPCRs): Structure-Functional Selectivity Relationships (SFSRs) and Therapeutic Potential” (J Med Chem, 2018).
Where a SMILES comes first, the peptide text is derived from it. Bridges are numbered along the chain shown (N, C = ends).

Assays:
[1] = biological target: T1, Glucagon-like peptide 1 receptor (Homo sapiens, UniProt P43220); experiment: Agonist activity at human GLP1 receptor expressed in HEK293 cells assessed as increase in cAMP accumulation after 24 hrs by luciferase reporter gene assay; type: functional, cell-based
T1 sequence (P43220 whole entry, the tested form may be a part): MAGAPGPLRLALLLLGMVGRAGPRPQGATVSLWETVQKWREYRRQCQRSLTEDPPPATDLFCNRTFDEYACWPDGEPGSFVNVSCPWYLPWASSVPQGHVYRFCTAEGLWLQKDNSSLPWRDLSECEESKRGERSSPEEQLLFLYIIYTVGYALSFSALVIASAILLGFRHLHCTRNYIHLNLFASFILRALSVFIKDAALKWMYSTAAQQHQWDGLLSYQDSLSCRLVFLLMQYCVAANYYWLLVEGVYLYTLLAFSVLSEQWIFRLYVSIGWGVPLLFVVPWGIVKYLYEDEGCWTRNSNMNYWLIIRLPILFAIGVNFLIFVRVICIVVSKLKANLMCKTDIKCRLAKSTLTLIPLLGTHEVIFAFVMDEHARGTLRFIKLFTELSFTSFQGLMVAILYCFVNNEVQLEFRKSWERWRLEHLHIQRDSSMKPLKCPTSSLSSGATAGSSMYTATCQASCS

[2] = biological target: T1, Glucagon-like peptide 1 receptor; experiment: Agonist activity at Rluc8 fused human GLP1 receptor expressed in HEK293 cells assessed co-expressing GFP-tagged beta-arrestin1 assessed as increase in beta-arrestin1 recruitment after 20 to 40 mins by BRET assay; type: cell-based
[3] = biological target: T1, Glucagon-like peptide 1 receptor; experiment: Agonist activity at Rluc8 fused human GLP1 receptor expressed in HEK293 cells assessed co-expressing GFP-tagged beta-arrestin2 assessed as increase in beta-arrestin2 recruitment after 20 to 40 mins by BRET assay; type: cell-based
[4] = biological target: T2, Type-1 angiotensin II receptor (Homo sapiens, UniProt P30556); experiment: Binding affinity to human AT1 receptor
T2 sequence (P30556 whole entry): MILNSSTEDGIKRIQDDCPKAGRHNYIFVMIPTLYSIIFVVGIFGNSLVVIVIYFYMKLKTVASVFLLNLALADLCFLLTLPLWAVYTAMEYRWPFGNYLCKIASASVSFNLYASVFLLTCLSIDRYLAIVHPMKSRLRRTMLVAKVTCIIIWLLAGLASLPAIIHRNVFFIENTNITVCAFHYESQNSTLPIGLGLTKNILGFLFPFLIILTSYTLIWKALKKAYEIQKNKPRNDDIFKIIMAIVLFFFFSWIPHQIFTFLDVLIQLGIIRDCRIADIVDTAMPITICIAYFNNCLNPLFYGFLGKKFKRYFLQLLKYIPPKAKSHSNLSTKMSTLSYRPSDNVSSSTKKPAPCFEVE

[5] = biological target: T3, Endothelin-1 receptor (Homo sapiens) (UniProt P25101); experiment: Agonist activity at ETA receptor (unknown origin) by saphenous vein contraction assay
T3 sequence (whole entry): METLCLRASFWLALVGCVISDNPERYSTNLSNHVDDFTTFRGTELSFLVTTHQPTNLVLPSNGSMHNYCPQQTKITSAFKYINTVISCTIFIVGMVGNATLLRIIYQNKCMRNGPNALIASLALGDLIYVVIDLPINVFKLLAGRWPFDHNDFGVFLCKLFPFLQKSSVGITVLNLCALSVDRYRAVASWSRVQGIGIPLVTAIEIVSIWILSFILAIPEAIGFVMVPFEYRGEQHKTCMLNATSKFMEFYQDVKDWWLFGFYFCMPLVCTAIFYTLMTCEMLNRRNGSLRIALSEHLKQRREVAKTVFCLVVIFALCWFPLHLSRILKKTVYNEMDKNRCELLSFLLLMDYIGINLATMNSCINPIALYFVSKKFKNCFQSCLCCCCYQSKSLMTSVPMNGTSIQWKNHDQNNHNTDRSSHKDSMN

[6] = biological target: T3, Endothelin-1 receptor (Homo sapiens); experiment: Agonist activity at ETA receptor (unknown origin) assessed as increase in beta-arrestin recruitment
[7] = biological target: T3, Endothelin-1 receptor (Homo sapiens); experiment: Ratio of compound agonist effect for ETA receptor (unknown origin) assessed as increase in beta-arrestin recruitment to compound agonist effect for ETA receptor (unknown origin) by saphenous vein contraction assay
[8] = biological target: T4, C-X-C chemokine receptor type 3 (Homo sapiens) (UniProt P49682); experiment: Negative allosteric modulation activity at CXCR3 (unknown origin) expressed in HEK293 cell membranes assessed as increase in [35S]-GTPgammaS binding after 1 hr by scintillation counting assay; type: functional
T4 sequence (whole entry): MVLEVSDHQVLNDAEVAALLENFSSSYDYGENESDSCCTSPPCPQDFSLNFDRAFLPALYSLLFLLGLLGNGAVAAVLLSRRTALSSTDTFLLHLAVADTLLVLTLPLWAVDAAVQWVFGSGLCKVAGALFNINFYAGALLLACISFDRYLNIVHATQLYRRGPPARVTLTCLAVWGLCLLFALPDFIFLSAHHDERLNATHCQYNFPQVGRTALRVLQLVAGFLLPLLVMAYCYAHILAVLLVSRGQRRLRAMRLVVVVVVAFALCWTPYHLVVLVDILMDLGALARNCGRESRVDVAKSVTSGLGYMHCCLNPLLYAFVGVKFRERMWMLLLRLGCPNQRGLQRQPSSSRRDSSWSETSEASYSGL

[9] = biological target: T4, C-X-C chemokine receptor type 3 (Homo sapiens); experiment: Negative allosteric modulation activity at prolink-tagged CXCR3 (unknown origin) expressed in HEK293 cells harboring beta-galactosidase enzyme assessed as inhibition of CXCL11-induced beta-arrestin2 recruitment after 4 hrs by chemiluminescence assay; type: cell-based
[10] = biological target: T4, C-X-C chemokine receptor type 3 (Homo sapiens); experiment: Ratio of pKb for CXCR3 (unknown origin) expressed in HEK293 cell membranes assessed as increase in [35S]-GTPgammaS binding to pKb for prolink-tagged CXCR3 (unknown origin) expressed in HEK293 cells harboring beta-galactosidase enzyme assessed as inhibition of CXCL11-induced beta-arrestin2 recruitment; type: functional

CC[C@H](C)[C@H](NC(=O)[C@H](Cc1ccccc1)NC(=O)[C@H](CCC(=O)O)NC(=O)[C@H]1CCC[C@@H]1NC(=O)[C@H](C)NC(=O)[C@H](C)NC(=O)[C@H](CCC(N)=O)NC(=O)[C@H]1CCC[C@@H]1NC(=O)[C@H](CCC(=O)O)NC(=O)[C@H](CC(C)C)NC(=O)[C@H](Cc1ccc(O)cc1)NC(=O)[C@H]1CCC[C@@H]1NC(=O)[C@H](CO)NC(=O)[C@@H](NC(=O)[C@H](CC(=O)O)NC(=O)[C@H](CO)NC(=O)[C@@H](NC(=O)[C@H](Cc1ccccc1)NC(=O)[C@@H](NC(=O)CNC(=O)[C@H](CCC(=O)O)NC(=O)[C@H](C)NC(=O)[C@@H](N)Cc1cnc[nH]1)[C@@H](C)O)[C@@H](C)O)C(C)C)C(=O)N[C@@H](C)C(=O)N[C@@H](Cc1c[nH]c2ccccc12)C(=O)N[C@@H](CC(C)C)C(=O)N[C@H](C(=O)N[C@@H](CCCCN)C(=O)NCC(=O)N[C@@H](CCCNC(=N)N)C(=O)NCC(N)=O)C(C)C
EC50 [1]: 1 nM
EC50 [2]: 20 nM
EC50 [3]: 10 nM

CC[C@H](C)[C@H](NC(=O)[C@@H]1CCCN1C(=O)[C@H](Cc1cnc[nH]1)NC(=O)[C@@H](NC(=O)[C@@H](NC(=O)[C@@H](NC(=O)[C@H](CCCNC(=N)N)NC(=O)CNC)C(C)C)[C@@H](C)CC)C(C)C)C(=O)O
Kd [4]: 300 nM

H-DRVYVHPF-OH [[Val5] - ANGIOTENSIN II]
Kd [4]: 1.6 nM

CC[C@H](C)[C@H](NC(=O)[C@H](Cc1ccccc1)NC(=O)[C@H](CCC(=O)O)NC(=O)[C@H]1CCC[C@@H]1NC(=O)[C@H](C)NC(=O)[C@H](C)NC(=O)[C@H](CCC(N)=O)NC(=O)[C@H]1CCC[C@@H]1NC(=O)[C@H](CCC(=O)O)NC(=O)[C@H](CC(C)C)NC(=O)[C@H](Cc1ccc(O)cc1)NC(=O)[C@H]1CCC[C@@H]1NC(=O)[C@H](CO)NC(=O)[C@@H](NC(=O)[C@H](CC(=O)O)NC(=O)[C@H](CO)NC(=O)[C@@H](NC(=O)[C@H](Cc1ccccc1)NC(=O)[C@@H](NC(=O)CNC(=O)[C@H](CCC(=O)O)NC(=O)[C@H](C)NC(=O)[C@@H](N)Cc1cnc[nH]1)[C@@H](C)O)[C@@H](C)O)C(C)C)C(=O)N[C@H]1CCC[C@@H]1C(=O)N[C@@H](Cc1c[nH]c2ccccc12)C(=O)N[C@@H](CC(C)C)C(=O)N[C@H](C(=O)N[C@@H](CCCCN)C(=O)NCC(=O)N[C@@H](CCCNC(=N)N)C(=O)NCC(N)=O)C(C)C
EC50 [1]: 3.98 nM
EC50 [2]: 31.6 nM
EC50 [3]: 10 nM

CC[C@H](C)[C@H](NC(=O)[C@H](CC(=O)O)NC(=O)[C@H](CC(C)C)NC(=O)[C@H](Cc1cnc[nH]1)NC(=O)[C@@H]1CSSC[C@H](N)C(=O)N[C@@H](CO)C(=O)N[C@H]2CSSC[C@H](NC(=O)[C@H](CCC(=O)O)NC(=O)[C@H](CCCCN)NC(=O)[C@H](CC(=O)O)NC(=O)[C@H](CC(C)C)NC(=O)[C@H](Cc3c[nH]c4ccccc34)NC(=O)[C@H](CO)NC(=O)[C@H](CO)NC2=O)C(=O)N[C@@H](C(C)C)C(=O)N[C@@H](Cc2ccc(O)cc2)C(=O)N[C@@H](Cc2ccccc2)C(=O)N1)C(=O)N[C@H](C(=O)N[C@@H](Cc1c[nH]c2ccccc12)C(=O)O)[C@@H](C)CC (H-CSCSSWLDKECVYFCHLDIIW-OH; disulfide 1-15, 3-11)
log(Tau/KA) [5]: 8.26
log(Tau/KA) [6]: 8.67
Ratio [7]: 3.1

CCOc1ccc(-n2c(C(C)N(Cc3ccc(F)c(B(O)O)c3)C(=O)Cc3ccc(F)c(C(F)(F)F)c3)nc3ncccc3c2=O)cc1 (configuration not stated)
pKb [8]: 6.09
pKb [9]: 7.46
Ratio [10]: 24

CC[C@H](C)[C@H](NC(=O)[C@H](CC(=O)O)NC(=O)[C@H](CC(C)C)NC(=O)[C@H](Cc1cnc[nH]1)NC(=O)[C@@H]1CSSC[C@H](N)C(=O)N[C@H]([C@H](C)O)C(=O)N[C@H]2CSSC[C@H](NC(=O)[C@H](CCC(=O)O)NC(=O)[C@H](CCCCN)NC(=O)[C@H](CC(=O)O)NC(=O)[C@H](CCCCN)NC(=O)[C@H](Cc3ccc(O)cc3)NC(=O)[C@H]([C@@H](C)O)NC(=O)[C@H](Cc3ccccc3)NC2=O)C(=O)N[C@@H](C(C)C)C(=O)N[C@@H](Cc2ccc(O)cc2)C(=O)N[C@@H](Cc2ccc(O)cc2)C(=O)N1)C(=O)N[C@H](C(=O)N[C@@H](Cc1ccc(O)cc1)C(=O)O)[C@@H](C)CC
log(Tau/KA) [5]: 6.8
log(Tau/KA) [6]: 7.11
Ratio [7]: 4
